Laboratory results taken from US5654427A, “Indolocarbazole derivatives to treat a pathological condition of the prostate” (Kyowa Hakko Kogyo Co., Ltd., priority 1995, dated 1997).
Like-named read-outs stand apart in the source and are kept apart here.

What was measured:
phosphorylase kinase = conditions: background; cited from earlier work
[1] = tested on: myosin light-chain kinase; conditions: background; cited from earlier work
DU-145 = assay: growth inhibition of DU-145 prostate cancer cells (calcein fluorescence); format: cell-based; conditions: Homo sapiens, DU-145, 72 h, read-out: DU-145 C50
Description: (§1) Throughout the experiment the Tsu-Pr1 and Du-Pro1 cells were maintained in RPMI 1640 medium (GIBCO) containing 10% fetal bovine serum (Hyclone), 2 mM glutamine, 100 U/ml penicillin, and 100 μg/ml streptomycin. The PC-3 cells were maintained in Ham's F12K medium (Irvine Scientific) containing 10% fetal bovine serum (Hyclone), 2 mM glutamine, 100 U/ml penicillin, and 100 μg/ml streptomycin. All cell lines were maintained at 37° C. in a humidified atmosphere containing 5% CO2. The DU-145 cells were maintained in minimal essential medium (Gibco), containing 10% fetal bovine serum (Hyclone), 2 mM glutamine, and no antibiotics.
(§2) Tests for growth inhibition by the candidate compounds were conducted by the following procedure. In each well of a 96-well plate (Falcon) were placed 2,500 cells in 0.1 ml of medium. The cultures were incubated overnight after which a 0.1 ml aliquot of culture medium was added to each well. […] Other control wells received medium without any K-252a derivative compounds. Incubation was continued for three days. On day three the number of cells in each well was measured using a calcein fluorescence assay (Bozyczko-Coyne et al. J. Neurosci. Meth. 50, 205-216 (1993)).
(§3) Calcein AM (Molecular Probes, Eugene, Oreg.), an analog of the viable dye fluorescein diacetate, is taken up by cells and cleaved intracellularly to fluorescent salts that are retained by intact membranes of viable cells. This method thus provides a reliable and quantitative measurement of cell survival. Calcein AM was diluted 2× in Dulbeccos phosphate buffered saline (D-PBS) to 2× the final assay concentration (6 μM) and 100 μl was added to culture wells containing 100 μl of medium. The plates were then incubated for 1 hour at 37° C. Cells were then washed 4 times with D-PBS to remove excess calcein not taken up by cells. The plate was read using a Millipore plate reading fluorimeter (Cytofluor 2350) at emission=485 nm and excitation=538 nm. After subtraction of blank values (wells containing medium but no cells), relative fluorescent values reflect a quantitative measurement of cell survival.
(§4) The number of cells in the wells containing functional derivatives was compared to the number of cells in the control wells. The concentration which inhibited cell growth by 50% was calculated and is referred to as the "IC50 ".

Tsu-Pr1 = assay: growth inhibition of Tsu-Pr1 prostate cancer cells (calcein fluorescence); format: cell-based; conditions: Homo sapiens, TSU-Pr1, 72 h, read-out: Tsu-Pr1 IC50
Description: as §1, §2, §3, §4

protein kinase C = conditions: background; cited from earlier work
protein kinase A = conditions: background; cited from earlier work
protein kinase G = conditions: background; cited from earlier work
PC-3 = assay: growth inhibition of PC-3 prostate cancer cells (calcein fluorescence); format: cell-based; conditions: Homo sapiens, PC-3, 72 h, read-out: PC-3 IC50
Description: as §1, §2
(§5) Calcein AM (Molecular Probes, Eugene, Oreg.), an analog of the viable dye fluorescein diacetate, is taken up by cells and cleaved intracellularly to fluorescent salts that are retained by intact membranes of viable cells. This method thus provides a reliable and quantitative measurement of cell survival. Calcein AM was diluted 2× in Dulbeccos phosphate buffered saline (D-PBS) to 2× the final assay concentration (6 μM) and 100 μl was added to culture wells containing 100 μl of medium. The plates were then incubated for 1 hour at 37° C. Cells were then washed 4 times with D-PBS to remove excess calcein not taken up by cells. The plate was read using a Millipore plate reading fluorimeter (Cytofluor 2350) at emission=485 nm and excitation=538 nm. After subtraction of blank values (wells containing medium but no cells), relative fluorescent values reflect a quantitative measurement of cell survival. […]

prostate glands = assay: inhibition of prostate growth in sexually immature mice (weight of prostate glands); format: in vivo; conditions: for Dorsal Prostate weight: TEPBS 9.8 ± 1.6; for Coagulating Glands weight: TEPBS 25.1 ± 1.6; for Seminal Vesicles weight: TEPBS 75.0 ± 5.0
Text: (§6) The following animal model can be used to test the efficacy of a functional derivative for treatment of a proliferative prostate condition. Sexually immature male mice of 15-20 g each (Charles River Laboratories, Raleigh, N.C.) were used in the following in vivo study. The mice were allowed at least 3 days after purchase to acclimate before being used in any experiments.
(§7) Each test group contained 12 mice. […] At the end of the 21 day dosing period the mice were sacrificed and whole body blood, dorsal prostate, ventral prostate, coagulating glands, seminal vesicles, heart, liver, stomach, lung, kidneys and testes were collected separately and weighed.

[2] = body weight and weight of peripheral organs in sexually immature mice; conditions: for Body Weight: Table 4, TEPBS 31.5 ± 0.8; for Heart weight / Testes weight / Lung weight / Stomach weight / Kidney weight / Liver weight: Table 5; for Heart weight: TEPBS 171 ± 8.4; for Testes weight: TEPBS 202 ± 6; for Lung weight: TEPBS 230 ± 15.9; for Stomach weight: TEPBS 294 ± 22; for Kidney weight: TEPBS 576 ± 22; for Liver weight: TEPBS 1937 ± 75
Text: as §6, §7

Du-Pro1 = assay: growth inhibition of Du-Pro1 prostate cancer cells (calcein fluorescence); format: cell-based; conditions: Homo sapiens, 72 h, read-out: Du-Pro1 IC50
Description: as §1, §2, §3, §4

trkA = target: T1, trkA (Rattus norvegicus, UniProt P35739); assay: inhibition of NGF-stimulated trk autophosphorylation (tyrosine phosphorylation) in PC12 cells, anti-phosphotyrosine Western blot; format: cell-based; conditions: 100 nM compound, NGF 50 ng/ml; further: key: +: Inhibited phosphorylation; -: Did not inhibit phosphorylation
T1 construct: are rat pheochromocytoma cells that bear trkA; host or cells: PC12 rat pheochromocytoma cells
T1 sequence (P35739 33-799): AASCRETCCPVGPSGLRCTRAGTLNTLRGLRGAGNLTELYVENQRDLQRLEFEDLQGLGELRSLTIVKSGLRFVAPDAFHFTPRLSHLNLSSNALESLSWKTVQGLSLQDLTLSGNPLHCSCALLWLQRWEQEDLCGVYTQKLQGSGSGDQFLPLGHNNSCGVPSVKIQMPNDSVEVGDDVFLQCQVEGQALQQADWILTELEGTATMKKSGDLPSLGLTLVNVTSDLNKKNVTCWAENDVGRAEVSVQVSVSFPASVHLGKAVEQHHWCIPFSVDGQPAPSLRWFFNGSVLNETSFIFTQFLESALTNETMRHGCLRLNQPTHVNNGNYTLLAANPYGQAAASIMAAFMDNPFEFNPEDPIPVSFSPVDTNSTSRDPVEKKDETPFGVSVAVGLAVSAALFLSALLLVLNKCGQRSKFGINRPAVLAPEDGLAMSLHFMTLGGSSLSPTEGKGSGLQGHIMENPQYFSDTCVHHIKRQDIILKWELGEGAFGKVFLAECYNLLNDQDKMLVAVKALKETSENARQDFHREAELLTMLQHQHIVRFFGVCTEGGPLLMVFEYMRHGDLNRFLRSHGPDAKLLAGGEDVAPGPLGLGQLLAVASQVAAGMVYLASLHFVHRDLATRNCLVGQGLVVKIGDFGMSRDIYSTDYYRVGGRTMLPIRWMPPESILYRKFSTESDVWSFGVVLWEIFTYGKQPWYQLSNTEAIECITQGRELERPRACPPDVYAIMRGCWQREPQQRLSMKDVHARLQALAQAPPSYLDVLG
Description: Candidate compounds for the inhibition of prostate cell proliferation were selected according to their ability to inhibit the tyrosine kinase activity associated with the trks.
PC12 cells (ATCC #CRL1721) are rat pheochromocytoma cells that bear trkA and differentiate into sympathetic neurons when treated with NGF. […] Cells were incubated at 37° C. in a humidified atmosphere of 10% CO2 and 90% air. […] The cells in each culture were disrupted and cell lysates were prepared by standard techniques known to those skilled in the art. Each lysate was incubated with anti-trk antibody whereby immune complexes were formed. […] The immune complexes were collected on Protein A-Sepharose beads, separated by SDS-polyacrylamide gel electrophoresis (SDS-PAGE), and transferred to polyvinylidene difluoride (PVDF) membranes (Millipore Corp., Bedford, Mass.), using techniques well known to those skilled in the art. The membranes were incubated with anti-phosphotyrosine antibody, which binds to the tyrosine phosphorylated trks, but not to the un-phosphorylated form of trks. Proteins bound to anti-phosphotyrosine antibody were visualized with enhanced chemiluminescence (ECL, Amersham), and are shown as dark "spots" in FIG. 1.
Measurement of the autophosphorylation of trk provides a good index of trk tyrosine kinase activity, and thereby of trk stimulation.
Inhibition was indicated by the absence of a spot migrating with the trk marker shown at the left side of the figure. Partial inhibition was indicated by a spot of reduced size.

[3] = tested on: androgen independent human prostate cancer cell lines Tsu-Pr1, DuPro-1, PC-3 and DU-145; assay: growth inhibition of prostate cancer-derived cell lines, overall (calcein fluorescence); format: cell-based; conditions: Table 3
Description: as §1, §2, §5

[4] = Table 4, 1 mg/kg s.c. daily 21 days
[5] = Table 4, 10 mg/kg s.c. daily 21 days

Row | Compound | weight of the ventral prostates and seminal vesicles, in words (prostate glands; 1 mg/kg) | Dorsal Prostate weight (prostate glands; [4]) | Coagulating Glands weight (prostate glands; [4]) | Seminal Vesicles weight (prostate glands; [4]) | Dorsal Prostate weight (prostate glands; [5]) | Coagulating Glands weight (prostate glands; [5]) | Seminal Vesicles weight (prostate glands; [5]) | Body Weight ([2]; 1 mg/kg s.c. daily 21 days) | Body Weight ([2]; 10 mg/kg s.c. daily 21 days) | Heart weight ([2]; 1 mg/kg s.c. daily 21 days) | Testes weight ([2]; 1 mg/kg s.c. daily 21 days) | Lung weight ([2]; 1 mg/kg s.c. daily 21 days) | Stomach weight ([2]; 1 mg/kg s.c. daily 21 days) | Kidney weight ([2]; 1 mg/kg s.c. daily 21 days) | Liver weight ([2]; 1 mg/kg s.c. daily 21 days) | Heart weight ([2]; 10 mg/kg s.c. daily 21 days) | Testes weight ([2]; 10 mg/kg s.c. daily 21 days) | Lung weight ([2]; 10 mg/kg s.c. daily 21 days) | Stomach weight ([2]; 10 mg/kg s.c. daily 21 days) | Kidney weight ([2]; 10 mg/kg s.c. daily 21 days) | other results
1 | COC(=O)C1(O)CC2OC1(C)n1c3ccccc3c3c4c(c5c6ccccc6n2c5c31)C(=O)NC4 (stereo not shown) [Compound I-1] | significantly reduced the weight of the ventral prostates and seminal vesicles | 6.2 ± 1.3 mg | 18.2 ± 2.4 mg | 61.4 ± 4.1 mg | 6.7 ± 0.7 mg | 18.5 ± 1.4 mg | 66.4 ± 5.6 mg | 32.2 ± 0.6 g | 30.0 ± 0.6 g | 164 ± 6.4 mg | 216 ± 6 mg | 229 ± 8.02 mg | 288 ± 10 mg | 598 ± 19 mg | 1921 ± 81 mg | 152 ± 6.58 mg | 204 ± 11 mg | 263 ± 14.8 mg | 295 ± 30 mg | 550 ± 18 mg | inhibitor of phosphorylase kinase (phosphorylase kinase): inhibitor; inhibitor of myosin light-chain kinase [1]: inhibitor; IC50 (DU-145): 1200 nM; IC50 (Tsu-Pr1): 210 nM; inhibitor of protein kinase C (protein kinase C): inhibitor; inhibitor of protein kinase A (protein kinase A): inhibitor; inhibitor of protein kinase G (protein kinase G): inhibitor; IC50 (PC-3): 3400 nM; effect of the higher dose, in words (prostate glands; 10 mg/kg versus 1 mg/kg): did not produce any greater effect; Ventral Prostate weight (prostate glands; mouse, in vivo, sc, 1 mg/kg): 7.6 ± 0.9 mg; Ventral Prostate weight (prostate glands; mouse, in vivo, sc, 10 mg/kg): 8.6 ± 0.8 mg; Liver weight ([2]; 10 mg/kg s.c. daily 21 days): 1765 ± 50 mg; IC50 (Du-Pro1): 750 nM
2 | CC12OC(CC1(O)C(=O)NCCO)n1c3ccccc3c3c4c(c5c6ccccc6n2c5c31)CNC4=O (stereo not shown) [Compound I-12] | reduced the weight of the ventral prostates and seminal vesicles | 4.7 ± 0.4 mg | 18.0 ± 2.4 mg | 54.3 ± 1.5 mg | 8.6 ± 1.1 mg | 17.6 ± 1.0 mg | 55.3 ± 2.2 mg | 32.8 ± 0.4 g | 29.5 ± 1.0 g | 179 ± 8.78 mg | 191 ± 12 mg | 244 ± 15.1 mg | 329 ± 28 mg | 591 ± 16 mg | 2120 ± 54 mg | 152 ± 9.60 mg | 187 ± 5 mg | 253 ± 20.9 mg | 270 ± 19 mg | 552 ± 29 mg | IC50 (DU-145; 3 days incubation): 750 nM; IC50 (Tsu-Pr1; 3 days incubation): 38 nM; trk 100 nM (inhibition of phosphorylation) (trkA): +; potency in inhibiting prostate cell line growth, in words [3]: most potent compounds in inhibiting growth in all four cell lines; IC50 (PC-3; 3 days incubation): 690 nM; weight of the dorsal prostate, in words (prostate glands; 1 mg/kg and 10 mg/kg): only reduced after treatment with 1 mg/kg; weight of the ventral prostates and seminal vesicles, in words (prostate glands; 10 mg/kg): reduced the weight of the ventral prostates and seminal vesicles; Ventral Prostate weight (prostate glands; Table 4, 1 mg/kg s.c. daily 21 days, TEPBS 11.3 ± 0.6): 6.2 ± 0.4 mg; Ventral Prostate weight (prostate glands; Table 4, 10 mg/kg s.c. daily 21 days, TEPBS 11.3 ± 0.6): 8.4 ± 0.8 mg; Liver weight ([2]; 10 mg/kg s.c. daily 21 days): 1886 ± 84 mg; IC50 (Du-Pro1; 3 days incubation): 310 nM
